Earlier results, collected in patent US20240315993A1, “ANTIPARASITIC COMPOUNDS” (Intervet Inc., priority 2021, published 2024).

Assays:
[1] = test system: Yellow Fever Mosquito (Aedes aegypti); conditions: Aedes aegypti larvae about 1 day old, 96-well plate, scored after 3 days; cited from earlier work
[2] = test system: Cabbage Looper (Trichoplusia ni); conditions: 128-well diet tray, average of eight wells, cited from earlier work; for Test B: Bioassay on CL, percent mortality rating: Cabbage Looper second instar larvae, 50 μg/cm^2, five to seven days; for Test B: percent mortality of Cabbage Looper (CL) larvae, rating: 50 μg/cm^2 on artificial diet, second instar larvae, 5-7 days
[3] = test system: Beet Armyworm (Spodoptera exigua); conditions: 128-well diet tray, average of eight wells, cited from earlier work; for Test A: Bioassay on BAW, percent mortality rating: Beet Armyworm second instar larvae, 50 μg/cm^2, five to seven days; for Test A: percent mortality of Beet Armyworm (BAW) larvae, rating: 50 μg/cm^2 on artificial diet, second instar larvae, 5-7 days

Structure (SMILES)	Test C: Bioassay on Yellow Fever Mosquito, mortality rating [1]	Test B: Bioassay on CL, percent mortality rating [2]	Test A: Bioassay on BAW, percent mortality rating [3]	Test B: percent mortality of Cabbage Looper (CL) larvae, rating [2]	Test A: percent mortality of Beet Armyworm (BAW) larvae, rating [3]
O=C(Nc1ccc(-n2ccnc2)cc1)c1cc(NC(=O)[C@H]2[C@H](c3cc(Cl)cc(Cl)c3)C2(Cl)Cl)ccc1Cl [c1]	A (80-100)	A (50-100)	A (50-100)	–	–
O=C(Nc1ccc(-n2cncn2)cc1)c1cc(NC(=O)[C@H]2[C@H](c3cc(Cl)cc(Cl)c3)C2(Cl)Cl)ccc1Cl [c2]	A (80-100)	A (50-100)	A (50-100)	–	–
Cc1cc(C(F)(C(F)(F)F)C(F)(F)F)cc(C)c1NC(=O)c1cc(NC(=O)[C@H]2[C@H](c3cc(Cl)cc(Cl)c3)C2(Cl)Cl)ccc1Cl [c3]	D (No activity noticed in this bioassay)	A (50-100)	A (50-100)	–	–
O=C(Nc1ccc(NC(=O)C2CC2)cc1)c1cc(NC(=O)[C@H]2[C@H](c3cc(Cl)cc(Cl)c3)C2(Cl)Cl)ccc1Cl [c4]	A (80-100)	A (50-100)	A (50-100)	–	–
O=C(CC1CC1)Nc1ccc(NC(=O)c2cc(NC(=O)[C@H]3[C@H](c4cc(Cl)cc(Cl)c4)C3(Cl)Cl)ccc2Cl)cc1 [c5]	A (80-100)	A (50-100)	A (50-100)	–	–
COCC1(C(=O)Nc2ccc(NC(=O)c3cc(NC(=O)[C@H]4[C@H](c5cc(Cl)cc(Cl)c5)C4(Cl)Cl)ccc3Cl)cc2)CC1 [c6]	A (80-100)	A (50-100)	A (50-100)	–	–
O=C(Nc1ccc(NC(=O)C2CC2(F)F)cc1)c1cc(NC(=O)[C@H]2[C@H](c3cc(Cl)cc(Cl)c3)C2(Cl)Cl)ccc1Cl (stereo partly shown) [c7]	A (80-100)	A (50-100)	A (50-100)	–	–
CC(C)(C)CC(=O)Nc1ccc(NC(=O)c2cc(NC(=O)[C@H]3[C@H](c4cc(Cl)cc(Cl)c4)C3(Cl)Cl)ccc2Cl)cc1 [c8]	D (No activity noticed in this bioassay)	A (50-100)	A (50-100)	–	–
O=C(Nc1ccc(-n2cnnc2)cc1)c1cc(NC(=O)[C@H]2[C@H](c3cc(Cl)cc(Cl)c3)C2(Cl)Cl)ccc1Cl [c9]	A (80-100)	A (50-100)	A (50-100)	–	–
CC(=O)Nc1ccc(NC(=O)c2cc(NC(=O)[C@H]3[C@H](c4cc(Cl)cc(Cl)c4)C3(Cl)Cl)ccc2Cl)c(C)c1 [c10]	A (80-100)	A (50-100)	A (50-100)	–	–
O=C(Nc1ccc2ncsc2c1)c1cc(NC(=O)C2C(c3cc(Cl)cc(Cl)c3)C2(Cl)Cl)ccc1Cl (stereo not shown) [c11]	A (80-100)	A (50-100)	A (50-100)	–	–
O=C(Nc1ccc2[nH]ccc2c1)c1cc(NC(=O)C2C(c3cc(Cl)cc(Cl)c3)C2(Cl)Cl)ccc1Cl (stereo not shown) [c12]	A (80-100)	A (50-100)	A (50-100)	–	–
O=C(Nc1ccc2cccnc2c1)c1cc(NC(=O)C2C(c3cc(Cl)cc(Cl)c3)C2(Cl)Cl)ccc1Cl (stereo not shown) [c13]	B (More than 0 - Less than 80)	A (50-100)	A (50-100)	–	–
O=C(Nc1cnc2cc[nH]c2c1)c1cc(NC(=O)C2C(c3cc(Cl)cc(Cl)c3)C2(Cl)Cl)ccc1Cl (stereo not shown) [c14]	B (More than 0 - Less than 80)	A (50-100)	A (50-100)	–	–
O=C(Nc1ccc2nc(Cl)[nH]c2c1)c1cc(NC(=O)C2C(c3cc(Cl)cc(Cl)c3)C2(Cl)Cl)ccc1Cl (stereo not shown) [c15]	B (More than 0 - Less than 80)	A (50-100)	A (50-100)	–	–
COC(=O)Nc1ccc(NC(=O)c2cc(NC(=O)[C@H]3[C@H](c4cc(Cl)cc(Cl)c4)C3(Cl)Cl)ccc2Cl)cc1 [c16]	B (More than 0 - Less than 80)	A (50-100)	A (50-100)	–	–
O=C(Nc1cc(C(F)(F)F)[nH]n1)c1cc(NC(=O)[C@H]2[C@H](c3cc(Cl)cc(Cl)c3)C2(Cl)Cl)ccc1Cl [c17]	D (No activity noticed in this bioassay)	A (50-100)	A (50-100)	–	–

Structure (SMILES)	Test C: Bioassay on Yellow Fever Mosquito, mortality rating [1]	Test B: Bioassay on CL, percent mortality rating [2]	Test A: Bioassay on BAW, percent mortality rating [3]	Test B: percent mortality of Cabbage Looper (CL) larvae, rating [2]	Test A: percent mortality of Beet Armyworm (BAW) larvae, rating [3]
O=C(Nc1ccc(-n2cccn2)cc1)c1cc(NC(=O)C2C(c3cc(Cl)cc(Cl)c3)C2(Cl)Cl)ccc1Cl (stereo not shown) [c18]	A (80-100)	A (50-100)	A (50-100)	–	–
O=C(Nc1nc2ccccc2s1)c1cc(NC(=O)C2C(c3cc(Cl)cc(Cl)c3)C2(Cl)Cl)ccc1Cl (stereo not shown) [c19]	B (More than 0 - Less than 80)	A (50-100)	A (50-100)	–	–
COc1c(Cl)cc(C2C(C(=O)Nc3ccc(Cl)c(C(=O)Nc4ccc(NC(C)=O)cc4)c3)C2(Cl)Cl)cc1Cl (stereo not shown) [c20]	D (No activity noticed in this bioassay)	A (50-100)	A (50-100)	–	–
CNc1ccc(NC(=O)c2cc(NC(=O)C3C(c4cc(Cl)c(OC)c(Cl)c4)C3(Cl)Cl)ccc2Cl)cc1 (stereo not shown) [c21]	D (No activity noticed in this bioassay)	A (50-100)	A (50-100)	–	–
O=C(Nc1nnn[nH]1)c1cc(NC(=O)[C@H]2[C@H](c3cc(Cl)cc(Cl)c3)C2(Cl)Cl)ccc1Cl [c22]	B (More than 0 - Less than 80)	A (50-100)	A (50-100)	–	–
O=C(Nc1ccc(-c2ncco2)cc1)c1cc(NC(=O)C2C(c3cc(Cl)cc(Cl)c3)C2(Cl)Cl)ccc1Cl (stereo not shown) [c23]	D (No activity noticed in this bioassay)	A (50-100)	A (50-100)	–	–
Cc1ccc(-c2csc(NC(=O)c3cc(NC(=O)[C@H]4[C@H](c5cc(Cl)cc(Cl)c5)C4(Cl)Cl)ccc3Cl)n2)cc1 [c24]	D (No activity noticed in this bioassay)	A (50-100)	A (50-100)	–	–
O=C(Nc1c[nH]c(=O)[nH]c1=O)c1cc(NC(=O)[C@H]2[C@H](c3cc(Cl)cc(Cl)c3)C2(Cl)Cl)ccc1Cl [c25]	B (More than 0 - Less than 80)	A (50-100)	A (50-100)	–	–
O=C(Nc1nc2ccccc2o1)c1cc(NC(=O)C2C(c3cc(Cl)cc(Cl)c3)C2(Cl)Cl)ccc1Cl (stereo not shown) [c26]	A (80-100)	A (50-100)	A (50-100)	–	–
O=C(Nc1ccc2ncoc2c1)c1cc(NC(=O)C2C(c3cc(Cl)cc(Cl)c3)C2(Cl)Cl)ccc1Cl (stereo not shown) [c27]	A (80-100)	A (50-100)	A (50-100)	–	–
O=C(Nc1ccc2sccc2c1)c1cc(NC(=O)C2C(c3cc(Cl)cc(Cl)c3)C2(Cl)Cl)ccc1Cl (stereo not shown) [c28]	A (80-100)	A (50-100)	A (50-100)	–	–
Nc1cccc(NC(=O)c2cc(NC(=O)C3C(c4cc(Cl)cc(Cl)c4)C3(Cl)Cl)ccc2Cl)c1 (stereo not shown) [c29]	A (80-100)	A (50-100)	A (50-100)	–	–
CNc1cccc(NC(=O)c2cc(NC(=O)C3C(c4cc(Cl)cc(Cl)c4)C3(Cl)Cl)ccc2Cl)c1 (stereo not shown) [c30]	A (80-100)	A (50-100)	A (50-100)	–	–
Cc1ccc(NC(=O)c2cc(NC(=O)C3C(c4cc(Cl)cc(Cl)c4)C3(Cl)Cl)ccc2Cl)cc1N (stereo not shown) [c31]	B (More than 0 - Less than 80)	A (50-100)	A (50-100)	–	–
Cc1cc2cc(NC(=O)c3cc(NC(=O)C4C(c5cc(Cl)cc(Cl)c5)C4(Cl)Cl)ccc3Cl)ccc2[nH]1 (stereo not shown) [c32]	A (80-100)	A (50-100)	A (50-100)	–	–
CC(=O)OCCNc1ccc(NC(=O)c2cc(NC(=O)C3C(c4ccc(F)c(C(F)(F)F)c4)C3(Cl)Cl)ccc2Cl)c(C)c1 (stereo not shown) [c119]	–	–	–	A (50-100)	A (50-100)
Cc1cc(NCCO)ccc1NC(=O)c1cc(NC(=O)C2C(c3ccc(F)c(C(F)(F)F)c3)C2(Cl)Cl)ccc1Cl (stereo not shown) [c120]	–	–	–	A (50-100)	A (50-100)
